{"source": "patent US10226472B2", "about": "“Methods for the treatment of breast cancer” (SYNDAX PHARMACEUTICALS, INC., priority 2011, dated 2019)", "key": {"[1]": {"assay": "Phase 2 study of exemestane with and without entinostat: safety and tolerability (adverse events)", "assay_type": "in vivo, human", "procedure": "(§1) Secondary Outcome Measures are to compare objective response rate (ORR) and clinical benefit rate (CBR), and to evaluate the safety and tolerability of entinostat in combination with exemestane as measured by adverse events and laboratory safety parameters.\nSafety was assessed by adverse events (AEs), using the National Cancer Institute Common Terminology Criteria for Adverse Events, version 3.0, electrocardiograms, hematology and serum chemistries, ECOG performance status, and vital signs.\nSafety was assessed by an independent Data Safety Monitoring Board. All participating investigators and patients remain blinded to the assigned study treatment, as post-treatment follow-up for OS is continuing."}, "[2]": {"settings": "in vivo; cited from earlier work"}, "[3]": {"assay": "Plasma entinostat concentration at acetylation sampling time points", "assay_type": "in vivo, human", "settings": "D8 and D15 time points used for acetylation evaluation; generally at or below the assay detection limit"}, "[4]": {"system": "locally recurrent or metastatic estrogen receptor-positive breast cancer", "assay": "PFS by change in protein lysine acetylation in PBMCs (biomarker subset of the Phase 2 study)", "assay_type": "in vivo, human", "procedure": "The primary endpoint was progression-free survival (PFS).\nProtein lysine acetylation was measured by multi-parameter flow cytometry in peripheral blood mononuclear cells (PBMCs; CD19+ B cells, CD3+ T cells, and CD14+ monocytes) collected pre and post-treatment on D1, D8, and D15 of C1 to explore the association with PFS.\nThe association of PFS with degree of change in protein lysine acetylation from baseline in PBMCs was evaluated as an exploratory, post-hoc analysis in a subset of patients using the Cox proportional hazard model. Analyses in all 3 cell types (B cells, T cells, monocytes) was performed for consistency of results and to aid in selection of optimal cell type for analysis in future studies.\nBaseline characteristics were consistent with the overall study population (FIG. 17). Hyperacetylation in EE patients was associated with a prolonged median PFS consistent across all cell types tested (FIG. 18): 8.5 versus 2.7 months for low acetylators (HR=0.32, 95% CI 0.13, 0.79) (B cells); 6.6 versus 3.6 months for low acetylators (HR=0.44, 95% CI 0.18, 1.08) (T cells); and 6.2 versus 3.6 months for low acetylators (HR=0.50, 95% CI 0.21, 1.20) (monocytes). […] The percent change in acetylation from baseline was determined based upon the last sample obtained. The degree of change in acetylation was then dichotomized into “high” (i.e., above the median or “hyperacetylators”) and “low” (i.e., below the median) subgroups using a non-model based approach: patients with a change from baseline that was greater than or equal to the 50th percentile (median) of the overall distribution were assigned to the “high” group; patients with a change less than the 50th percentile were assigned to the “low” group. The cut-point for the analysis (50th percentile) was determined a priori, but was not based on findings from earlier studies.\nPercent change is calculated and related to progression free survival (PFS) outcome data. Hyperacetylation independent of treatment arm is defined as a percent change increase above the calculated median percent change for each cell type."}, "[5]": {"system": "advanced BC demonstrating PD or recurrence following a NSAI", "settings": "reported by Chia, et al; cited from earlier work"}, "[6]": {"system": "locally recurrent or metastatic estrogen receptor-positive breast cancer", "assay": "Phase 2 randomized, double-blind study of exemestane with and without entinostat (ENCORE-301): efficacy", "assay_type": "in vivo, human", "settings": "for median progression-free survival (PFS) / overall survival: intent-to-treat population; for overall survival: median follow-up of 18 months", "excerpt": "as §1\nThe primary endpoint of the study was progression-free survival. Other endpoints included objective response rate (ORR), clinical benefit rate (CBR), overall survival (OS) and safety and tolerability. All patients had received prior hormonal therapy (1 prior line 42%; >1 prior line 58%), and 33% had received prior chemotherapy in the advanced breast cancer setting.\nOne hundred thirty (130) patients were enrolled between June 2008 and July 2010 at 38 sites in North America, Central Europe, and Russia. All patients provided written informed consent. […] Randomization was stratified by 1) prior NSAI treatment setting (adjuvant/metastatic); 2) metastases in bone only (yes/no); and 3) geographic region (North America/Central Europe and Russia). The randomization schedule was prepared and maintained by an independent statistical service provider. The protocol allowed for enrollment of approximately 20% of patients with non-measurable disease.\nPostmenopausal women with ER+BC currently experiencing disease relapse or progression while receiving a NSAI were eligible. Patients either had 1) relapsed after adjuvant NSAI treatment administered for at least 12 months or 2) progressed after NSAI treatment administered for at least 3 months in the metastatic/advanced setting. One prior line of chemotherapy in the metastatic setting was permitted if given before the most recent NSAI. Within 4 weeks prior to starting study treatment, patients must have had at least 1 measurable lesion (≥20 mm by conventional techniques or ≥10 mm by spiral computed tomography [CT] scan), or with bone only metastases, a positive bone scan confirmed by magnetic resonance imaging (MRI) or positron emission tomography (PET)-CT. Additional requirements included, an Eastern Cooperative Oncology Group (ECOG) performance status of 0 or 1; adequate hematologic parameters; and creatinine, aspartate transaminase, and alanine transaminase <2.5 times the upper limit of normal. Patients with prior fulvestrant, exemestane, entinostat, or any other HDACi were excluded.\nTreatment cycles were 28 days in length. Patients were evaluated on Day (D) 1, D8, and D15 during Cycle (C) 1 and on D1 of all subsequent cycles. Peripheral blood samples were taken in a subset of patients pre- and post-dosing on D1, 8, or 15 of C1. Patient/disease response assessments were performed on D22 of C2 and every other cycle thereafter. After completing study treatment, patients entered into post-treatment follow-up for evaluation of overall survival and subsequent therapies. Patients were to be followed until death, withdrawal of consent, or study closure by the sponsor.\nDisease was evaluated using the Response Evaluation Criteria in Solid Tumors (RECIST), version 1.0. Contrast-enhanced CT scans were obtained at baseline, every other cycle for 12 months, and every third cycle thereafter. PD also was assessed by bone scan and clinical symptoms, as appropriate.\nThe primary endpoint was PFS, defined as the number of months from randomization to documented PD or death due to any cause. Secondary endpoints included overall response (OR; complete response [CR]+partial response [PR]) and clinical benefit rates (CBR; OR+stable disease [SD] for ≥6 months). Overall Survival (OS) was an exploratory endpoint.\nPFS was summarized descriptively using the Kaplan-Meier method and reported based on 116 progression events as of March 2012. The HR was estimated from a stratified Cox proportional hazards model, with placebo serving as the reference in the calculation. The primary inferential comparison between groups was made using the log-rank test, stratified by the 3 randomization factors. For patients who died before documentation of PD, death date was used as the PD date. […]"}, "[7]": {"settings": "listed as exemestane plus placebo"}}, "note": "Where “and” joins values, the source holds several entries; their conditions need not be identical. Equal values may be shown once.", "data": [{"smiles": "Nc1ccccc1NC(=O)c1ccc(CNC(=O)OCc2cccnc2)cc1", "note": "[entinostat, N-(2-aminophenyl)-4-[N-(pyridine-3-yl)methoxycarbonylamino-methyl]-benzamide]", "values": [{"measurement": "neutropenia cases attributed to entinostat", "setting": "[1]; EE group, 13 of 19 cases", "value": 68, "unit": "%"}, {"measurement": "tolerability / safety profile", "setting": "[1]; Phase 2 clinical trial", "value": "acceptable safety profile"}, {"measurement": "half-life", "setting": "[2]", "value": "about 100 hours"}, {"measurement": "plasma entinostat concentration", "setting": "[3]", "value": "< 0.5", "unit": "ng/mL"}]}, {"smiles": "C=C1C[C@@H]2[C@H](CC[C@]3(C)C(=O)CC[C@@H]23)[C@@]2(C)C=CC(=O)C=C12", "note": "[EP, exemestane]", "values": [{"measurement": "serious AE rate", "setting": "[1]; Example 1a", "value": 12, "unit": "%"}, {"measurement": "incidence of serious AEs", "setting": "[1]; Example 1c, Safety Population", "value": 12, "unit": "%"}, {"measurement": "AEs leading to dose modification", "setting": "[1]; Safety Population", "value": 6, "unit": "%"}, {"measurement": "AEs leading to study discontinuation", "setting": "[1]; Safety Population", "value": 2, "unit": "%"}, {"measurement": "G4 AEs", "setting": "[1]; Safety Population", "value": 3, "unit": "%"}, {"measurement": "Grade (G) 3 AEs", "setting": "[1]; Safety Population", "value": 23, "unit": "%"}, {"measurement": "rate of AEs", "setting": "[1]; Safety Population, irrespective of study drug relationship", "value": 85, "unit": "%"}, {"measurement": "median PFS, high acetylators (hyperacetylation)", "setting": "[4]; B cells", "value": "1.9 months and 1.92 months"}, {"measurement": "median PFS, low acetylators", "setting": "[4]; B cells", "value": 1.8, "unit": "months"}, {"measurement": "median PFS, high acetylators (hyperacetylation)", "setting": "[4]; T cells", "value": 1.77, "unit": "months"}, {"measurement": "median PFS, high acetylators (hyperacetylation)", "setting": "[4]; monocytes", "value": 1.87, "unit": "months"}, {"measurement": "median PFS", "setting": "[5]", "value": 3.7, "unit": "months"}, {"measurement": "median overall survival", "setting": "[6]; 23-month follow-up", "value": 19.8, "unit": "months"}, {"measurement": "incidence of death", "setting": "[6]; Example 1c analysis", "value": 65, "unit": "%"}, {"measurement": "median OS", "setting": "[6]; Example 1c analysis, ITT population", "value": 19.8, "unit": "months"}, {"measurement": "clinical benefit rate (CBR; OR+SD for >=6 months)", "setting": "[6]; ITT population", "value": 25.8, "unit": "%"}, {"measurement": "overall response (OR; CR+PR)", "setting": "[6]; ITT population, RECIST 1.0", "value": 4.6, "unit": "%"}, {"measurement": "median progression-free survival (PFS)", "setting": "[6]", "value": "2.3 months and 2.27 months"}, {"measurement": "median progression-free survival (PFS)", "setting": "[6]; listed as exemestane alone", "value": 2.3, "unit": "months"}, {"measurement": "median progression-free survival (PFS)", "setting": "[6]; [7]", "value": "2.27 months and 2.3 months"}, {"measurement": "median progression-free survival (PFS)", "setting": "[6]; listed as exemestane+placebo", "value": 2.3, "unit": "months"}, {"measurement": "overall survival", "setting": "[6]", "value": 20.3, "unit": "months"}, {"measurement": "overall survival", "setting": "[6]; [7]", "value": 20.33, "unit": "months"}]}]}
